Where two headings read alike, the source gives them in different places.
Key:
Type in all cases: cell-based
[1] = tested on: RSV A2; assay: Plaque Reduction Assay 1 (Vero cells, immunostaining); conditions: two replicate values, read-out: RSV Plaque Reduction assays A2 (PRNT1) (n = 2) IC50
Method: Plaque Reduction Assay 1: Vero cells were seeded in 96-well plates in a volume of 100 μL of Optimem supplemented with 3% FCS at a concentration of 4×10^4 cells per well. After an overnight incubation at 37° C. in a humidified 5% CO2 atmosphere, the monolayer of cells should be approximately 90% confluent. Antiviral compounds were titrated in pre-warmed Serum Free (SF) Optimem in a U-bottom 96 well plate. For compounds in a DMSO solution, titration in 100% DMSO was performed first and each concentration added individually to a 2× final concentration at 4% DMSO in SF media before mixing with virus (2% final DMSO with virus). Media was then removed from cells and replaced with PBS (100 μl/well). RSV stock was thawed and diluted in SF Optimem media to 4000 PFU/mLl. An equal volume of virus was added to compounds on the titration plate. PBS was removed from cells which were then inoculated with the virus/compound solution (50 μL/well). Cells were incubated for 2 h in a 37° C.+5% CO2 humidified incubator to allow infection. Inoculum was removed and media (Optimem+1% FCS) added to cells (100 μl/well). Cells were subsequently incubated for 48 h at 37° C.+5% CO2 in a humidified incubator. Immunostaining Procedure: Media was removed from cells and the monolayer washed with PBS. Cells were fixed with ice cold 80% Acetone in PBS (100 μl/well) for 20 mins at −20° C. Fixative was removed and cells are dried for 30 mins with plates inverted. Blocking solution (5% skim milk powder in PBS-T) was added to cells (150 μL/well) and plates were incubated for 30 mins at room temperature. Blocking solution was removed and plates washed once with PBS-T. Primary antibody in blocking solution was added to plates (50 μl/well) and incubated for 1 h at 37° C. Plates were then washed 3 times with PBS-T. Secondary antibody in blocking solution was added to plates ([…]) and incubated for 1 h at 37° C. in the dark. Plates were washed as above and then dried for 10 mins. Plates were scanned on the Odyssey Imager (Li-Cor Biosciences) at a resolution of […], medium quality and level 5 intensity in the […]. Data Analysis: Images obtained were saved and plaque numbers counted with the aid of computer imaging software. EC50 values for compounds were derived from dose response curves [three variable log(inhibitor) vs response] obtained using Graphpad Prism software.

[2] = target: T1, RSV A2_F (Human respiratory syncytial virus A, UniProt P03420); assay: RSV fusion assay (luciferase reporter, HEK 293T/17 cells transfected with A2_F); conditions: Fusion activity IC50 μM, HEK 293T/17 cells, 24 hr
T1 construct: expressed in transfected cells; host or cells: HEK 293T/17
Method: HEK 293T/17 cells were cultured in T75 culture flasks in Dulbecco's medium (DMEM) containing 10% FBS and 1× Penicillin-Streptomycin (Pen/Strep) and warmed to 37° C. prior to use. The cells were passaged by first washing briefly with 3 ml phosphate buffered saline (PBS) followed by a 4 min incubation with […] at 37° C. 7 ml media was then added to the flask and the cells dispersed via pipetting (×3) against the bottom of the flask. Two further T75 flasks were each seeded with 2×10^6 cells in 15 ml fresh media.
Cells were seeded on the T75 plates at the same density as on the 6-well plates the area of a T75 flask and one 1.75 cm radius well from a 6-well plate were compared. 7.79×2 ml of 3×10^5 cells ml^−1 was used to seed a single T75 flask.
HEK cells were removed from a T75 flask as described above. The cells were counted and diluted to 3×10^5 cells/ml in fresh media. Two T75 flasks were each seeded with 15.58 ml diluted cells.
The plasmid DNA (for pFR-Luc and pcDNA3.1_Gal4/NFκB) to be transfected into the HEK cells was first prepared in serum free media (DMEM+Pen/Strep) containing the transfection reagent Fugene 6 (Promega). Transfections were set up as follows (Luc=pFR_Luc, Gal4=pcDNA3.1+_Gal4/NFκB, A2_F=pcDNA3.1+_A2_F)
Serum free media was placed in a 1.5 ml eppendorf tube then the fugene 6 was added into the media. The tube was vortexed for 1 s before being incubated at RT for 5 min. The plasmid DNA was then added to the tube, vortexed for 1 s, then incubated at RT for 15 min
The transfection reagents were then added to the appropriate T75 flask by tipping the flask on end and adding the reagents directly to the media already in the flask. The flask was then tipped on its back so the media could be mixed thoroughly whilst not disturbing the cells before placing the flask the right way up and incubating overnight at 37° C. and 5% CO2.
Compounds were diluted (in a polypropylene round-bottomed 96 well plate) 1:3 in a twelve point dilution curve to give top [final] of either 3.3 μM, 1 μM, 500 nM 200 nM or 100 nM. The Control compound was always run at a concentration of 100 nM.
The cells were then counted and diluted to 4×10^5 cells/ml in fresh media. 50 μl of transfection population 1 cells were added to all wells of the assay plates. 100 μl diluted compound (2 rows per compound), standard curve (one row) and controls (100 nM RV (100% inhibition, four wells), DMSO (0% inhibition, eight wells)) were added to the appropriate wells. 50 μl of the diluted (4×10^5 cells/ml) transfection population 2 cells when then added to all wells.
The plates were then incubated for 24 hr at 37° C. and 5% CO2
Buffers were prepared for the luciferase assay (20 mM tricine, 10 mM MgSO4, 1 mM EDTA, 10 mM DTT) and lysis (25 mM tris-phosphate, 8 mM MgCl2, 1 mM DTT, 1% Triton X-100, 15% glycerol) and stored at −20° C.
Luminescence was measured as described:
Media was discarded into Virkon and the plates washed with 100 ul PBS per well. 20 ul/well of lysis buffer was added to each well and incubated shaking for 5 min at RT. Luciferin was added to LAAB at a dilution of 1:50 to give a working luciferin buffer. 100 μl working luciferin buffer was added to each well and luminescence was measured immediately. […]

[3] = tested on: RSV A2 VR-1540; assay: Plaque Reduction Assay 2 (HEp-2 cells, virospot count); conditions: human respiratory syncytial virus, 24 h; RSV A2, HEp-2 cells, 1 day
Source text: Plaque Reduction Assay 2:
This RSV plaque reduction assay is an infectivity assay which allows quantification of the number of infectious units in a distinct foci of RSV infection. This is indicated by zones of viral antigen detected by specific antibody staining within a monolayer of otherwise healthy tissue culture cells. As each plaque originates from a single infectious virus particle an accurate calculation of the anti-viral effect can be obtained by counting plaques in the presence and absence of an anti-viral compound. HEp-2 cells (ATCC, CCL23) were passaged in flasks and seeded in 96-well plates in DMEM containing antibiotics and supplemented with 10% FBS. During inoculation and subsequent incubation, cells were cultured in DMEM containing 3% FBS. 100 plaque forming unit (PFU)/well of RSV (RSV A2 VR-1540) was mixed with ten serial dilutions of compound. Subsequently, 100 μL of the virus/compound mixtures was added to confluent HEp-2 cell monolayers. The cells and virus/compound mixtures were incubated at 35° C. in a humidified 5% CO2 incubator for 1 day.
Cells were washed twice with PBS before adding 50% v/v EtOH/MeOH, and then stored at −20° C. On the day of the staining, fixative was first removed from the plates. Plates were washed 3× with PBS. A pre-titrated amount of the primary antibody was added in 60 μL PBS/2% milk powder, and plates incubated for 1 h at rt. The plates were washed 3× with PBS/0.05% Tween20 before addition of goat anti-mouse horse radish peroxidase in 60 μL PBS/2% milk powder, and incubated for 1 h at rt. Following three wash steps with PBS/0.05% Tween20, 60 μL ready-to-use TrueBlue was added and plates were incubated at rt for 10-15 min before adding MilliQ water. Plates were washed once with water, incubated for 30-60 min and after removal of water, air-dried in the dark.
Plates were scanned and analyzed using the Immunospot S6 UV analyzer, which is equipped with BioSpot analysis software for counting immunostained plaques (virospots). Plaque counts were used to calculate % infection relative to the mean of the spot count (SC) in the virus control wells for RSV. IC50/IC90 values were calculated as 50% or 90% reduction in signal, respectively, by interpolation of inhibition curves fitted with a 4-parameter nonlinear regression with a variable slope in GraphPad 5.0 (Prism).

[4] = human respiratory syncytial virus, Vero

T1 sequence (P03420 137-574): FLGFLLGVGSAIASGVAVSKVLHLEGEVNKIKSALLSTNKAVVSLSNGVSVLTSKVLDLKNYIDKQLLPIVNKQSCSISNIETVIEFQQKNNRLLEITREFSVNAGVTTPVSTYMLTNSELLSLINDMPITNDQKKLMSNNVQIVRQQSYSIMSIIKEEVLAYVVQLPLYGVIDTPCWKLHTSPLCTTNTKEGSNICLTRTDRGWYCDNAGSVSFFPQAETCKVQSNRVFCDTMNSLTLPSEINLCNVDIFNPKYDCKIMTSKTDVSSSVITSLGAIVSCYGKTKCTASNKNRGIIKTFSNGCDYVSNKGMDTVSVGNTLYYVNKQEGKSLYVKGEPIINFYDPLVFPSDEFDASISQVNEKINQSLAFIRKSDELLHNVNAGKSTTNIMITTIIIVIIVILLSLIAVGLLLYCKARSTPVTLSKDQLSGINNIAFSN
T1 sequence (P03420 26-109): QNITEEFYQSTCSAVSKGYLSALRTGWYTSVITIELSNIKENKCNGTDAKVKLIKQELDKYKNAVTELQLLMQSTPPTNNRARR

Work on `NC1CCN(c2ncc(CN3C(=O)C4(CC4)c4ccc(F)cc43)c(NCCCCO)n2)C1` (centres unmarked) [Compound 4, 1′-((2-(3-Aminopyrrolidin-1-yl)-4-((4-hydroxybutyl)amino)pyrimidin-5-yl)methyl)-6′-fluorospiro[cyclopropane-1,3′-indolin]-2′-one] yielded an IC50 [1, 4] of 5.48 nM, an IC50 [1] of 9.3 nM and an IC50 [2] of 0.452 µM. For the same molecule, the IC50 [3] was 43 nM.

In the case of `CC(C)CNc1nc(N2CCC(N)C2)ncc1CN1C(=O)C2(CC2)c2ccc(F)cc21` (centres unmarked) [Compound 5, 1′-((2-(3-Aminopyrrolidin-1-yl)-4-(isobutylamino)pyrimidin-5-yl)methyl)-6′-fluorospiro[cyclopropane-1,3′-indolin]-2′-one], the IC50 [1, 4] is reported as 165 nM, the IC50 [1] is reported as 215 nM and the IC50 [2] is reported as 0.655 µM. For the same molecule, the IC50 [3] was 998 nM.
